The values below are quoted from earlier work in patent US4439425A, “Peptide derivatives” (Ciba-Geigy Corporation, priority 1979, dated 1984).

This series deals with lymphocytes. Conditions: Z. Immun.-Forschung 153, 11-22 (1977).

For “murein lipoprotein: murein lipoprotein of the outer cell wall of Escherichia coli”, the “in vitro mitogenic activity” value was “in vitro mitogenic activity towards some lymphocytes”.
